From ChEMBL document CHEMBL3352532, “Microwave assisted synthesis and docking study of N-(2-oxo-2-(4-oxo-2-substituted thiazolidin-3ylamino)ethyl)benzamide derivatives as anticonvulsant agents” (Bioorg Med Chem Lett, 2014)
Activity calls are given as the source filed them. The rule behind the calls is not given here.

Assays:
Mus musculus [1] = assay: Anticonvulsant activity in ip dosed Swiss CF1 mouse measured after 4 hrs by scPTZ test; format: functional
[2] = Neurotoxicity in ip dosed Swiss CF1 mouse assessed as induction of motor impairment measured after 4 hrs by rotorod test; format: toxicity, organism-based; conditions: in vivo, read-out: MTD50
Mus musculus [3] = assay: Behavioral activity in Swiss CF1 mouse assessed as activity score at 100 mg/kg, ip measured after 4 hrs post dose by actophotometry; format: organism-based; parameters: dose 100 mg/kg, route intraperitoneal; conditions: in vivo
[4] = Lipophilicity, log P of the compound by UV spectroscopy; format: physicochemical; conditions: octanol/water
Mus musculus [5] = assay: Behavioral activity in Swiss CF1 mouse assessed as activity score at 100 mg/kg, ip measured after 0.5 hrs post dose by actophotometry; format: organism-based; parameters: dose 100 mg/kg, route intraperitoneal; conditions: in vivo
Mus musculus [6] = assay: Anticonvulsant activity in ip dosed Swiss CF1 mouse measured after 0.5 hrs by scPTZ test; format: functional
Mus musculus [7] = assay: Anticonvulsant activity in ip dosed Swiss CF1 mouse measured after 0.5 hrs by MES test; format: functional
[8] = Neurotoxicity in ip dosed Swiss CF1 mouse assessed as induction of motor impairment measured after 0.5 hrs by rotorod test; format: toxicity, organism-based; conditions: in vivo, read-out: MTD50
Mus musculus [9] = assay: Anticonvulsant activity in ip dosed Swiss CF1 mouse measured after 4 hrs by MES test; format: functional
Mus musculus [10] = assay: Hepatotoxicity in Swiss CF1 mouse assessed as induction of necrosis and fatty changes at 300 mg/kg, ip; format: toxicity, organism-based; parameters: dose 300 mg/kg, route intraperitoneal; conditions: in vivo
Mus musculus [11] = assay: Hepatotoxicity in Swiss CF1 mouse assessed as induction of fatty changes and inflammations at 300 mg/kg, ip; format: toxicity, organism-based; parameters: dose 300 mg/kg, route intraperitoneal; conditions: in vivo
Mus musculus [12] = assay: Hepatotoxicity in Swiss CF1 mouse assessed as induction of inflammation and necrosis at 300 mg/kg, ip; format: toxicity, organism-based; parameters: dose 300 mg/kg, route intraperitoneal; conditions: in vivo

Row | Structure (SMILES) | MED50 (Mus musculus [1]) | TD50 at 4 h [2] | Activity (Mus musculus [3]) | logP [4] | Activity (Mus musculus [5]) | MED50 (Mus musculus [6]) | MED50 (Mus musculus [7]) | TD50 at 0.5 h [8] | MED50 (Mus musculus [9]) | Activity (Mus musculus [10]) | Activity (Mus musculus [11]) | Activity (Mus musculus [12])
1 | O=C(CNC(=O)c1ccccc1)NN1C(=O)CSC1c1ccccc1Cl (stereo not given) | inactive | 100 mg/kg | 110.8 | 2.3 | 108.8 | inactive | 100 mg/kg | 100 mg/kg | 300 mg/kg | – | – | –
2 | COc1cc(C2SCC(=O)N2NC(=O)CNC(=O)c2ccccc2)cc(OC)c1OC (stereo not given) | 300 mg/kg | 100 mg/kg | 101 | 1.65 | 92.6 | 300 mg/kg | 100 mg/kg | 100 mg/kg | 300 mg/kg | – | – | –
3 | O=C1NC(=O)C(c2ccccc2)(c2ccccc2)N1 [PHENYTOIN] | – | – | – | – | – | – | 30 mg/kg | – | 30 mg/kg | Toxic | – | –
4 | O=C(CNC(=O)c1ccccc1)NN1C(=O)CSC1c1ccc(O)cc1 (stereo not given) | inactive | – | 99.6 | 1.75 | 38.2 | inactive | 30 mg/kg | – | 100 mg/kg | – | – | –
5 | CCCC(CCC)C(=O)[O-].[Na+] [VALPROATE SODIUM] | inactive | – | – | – | – | 300 mg/kg | – | – | – | – | – | –
6 | COc1ccc(C2SCC(=O)N2NC(=O)CNC(=O)c2ccccc2)cc1OC (stereo not given) | 300 mg/kg | – | 88.6 | 1.85 | 42 | 100 mg/kg | 30 mg/kg | – | 30 mg/kg | – | Non-toxic | –
7 | O=C(CNC(=O)c1ccccc1)NN1C(=O)CSC1c1cccc(Cl)c1 (stereo not given) | inactive | 30 mg/kg | 108.2 | 2.8 | 102.6 | inactive | 300 mg/kg | 30 mg/kg | inactive | – | – | –
8 | O=C(CNC(=O)c1ccccc1)NN1C(=O)CSC1c1ccc(F)cc1 (stereo not given) | inactive | 300 mg/kg | 94 | 2.1 | 64.6 | inactive | inactive | – | inactive | – | – | –
9 | COc1ccc(C2SCC(=O)N2NC(=O)CNC(=O)c2ccccc2)cc1 (stereo not given) | inactive | 300 mg/kg | 80.2 | 1.85 | 77.8 | 100 mg/kg | 300 mg/kg | 300 mg/kg | inactive | – | – | –
10 | O=C(CNC(=O)c1ccccc1)NN1C(=O)CSC1c1c[nH]c2ccccc12 (stereo not given) | inactive | 100 mg/kg | 120 | 1.7 | 102.6 | inactive | 300 mg/kg | 300 mg/kg | inactive | – | – | –
11 | O=C(CNC(=O)c1ccccc1)NN1C(=O)CSC1c1ccccc1 (stereo not given) | 300 mg/kg | 300 mg/kg | 94.8 | 1.95 | 74 | 100 mg/kg | 300 mg/kg | 100 mg/kg | 300 mg/kg | – | – | Toxic
12 | O=C(CNC(=O)c1ccccc1)NN1C(=O)CSC1c1ccc(Cl)cc1 (stereo not given) | inactive | – | 71.6 | 2.87 | 103.6 | 300 mg/kg | 100 mg/kg | – | 100 mg/kg | – | – | –
